Assays:
[1] = Binding affinity to cereblon in human MDA-MB-231 cells assessed as cell growth inhibition measured after 4 days
[2] = Binding affinity to cereblon in human MDA-MB-468 cells assessed as cell growth inhibition measured after 4 days
[3] = Binding affinity to cereblon in human RV4:11 cells expressing wild type p53 assessed as cell growth inhibition measured after 4 days
[4] = Binding affinity to cereblon in human RV4:11/IRMI-2 cells harboring p53 hotspot mutation Y236H/R249G assessed as cell growth inhibition measured after 4 days
[5] = Binding affinity to cereblon in human MDA-MB-468 cells assessed as reduction in cell growth inhibition measured after 4 days in presence of 10 uM lenalidomide
[6] = Binding affinity to cereblon in human MDA-MB-468 cells assessed as reduction in cell growth inhibition measured after 4 days in presence of 30 uM lenalidomide
[7] = Binding affinity to cereblon in human MDA-MB-468 cells assessed as reduction in cell growth inhibition measured after 4 days in presence of 100 uM lenalidomide
[8] = Binding affinity to cereblon in human MDA-MB-231 cells assessed as reduction in cell growth inhibition measured after 4 days in presence of 10 uM of lenalidomide
[9] = Binding affinity to cereblon in human MDA-MB-231 cells assessed as reduction in cell growth inhibition measured after 4 days in presence of 30 uM of lenalidomide
[10] = Binding affinity to cereblon in human MDA-MB-231 cells assessed as reduction in cell growth inhibition measured after 4 days in presence of 100 uM of lenalidomide
[11] = Binding affinity to cereblon in human RV4:11 cells expressing wild type p53 assessed as reduction in cell growth inhibition measured after 4 days in presence of 10 uM lenalidomide
[12] = Binding affinity to cereblon in human RV4:11 cells expressing wild type p53 assessed as reduction in cell growth inhibition measured after 4 days in presence of 30 uM lenalidomide
[13] = Binding affinity to cereblon in human RV4:11 cells expressing wild type p53 assessed as reduction in cell growth inhibition measured after 4 days in presence of 100 uM lenalidomide
[14] = Binding affinity to cereblon in human RV4:11/IRMI-2 cells harboring p53 hotspot mutation Y236H/R249G assessed as reduction in cell growth inhibition measured after 4 days in presence of 10 uM lenalidomide
[15] = Binding affinity to cereblon in human RV4:11/IRMI-2 cells harboring p53 hotspot mutation Y236H/R249G assessed as reduction in cell growth inhibition measured after 4 days in presence of 30 uM lenalidomide
[16] = Binding affinity to cereblon in human RV4:11/IRMI-2 cells harboring p53 hotspot mutation Y236H/R249G assessed as reduction in cell growth inhibition measured after 4 days in presence of 100 uM lenalidomide

## O=C1CCC(N2Cc3c(CCCCCNC(=O)c4ccc(NC(=O)[C@@H]5NC6(CCCCC6)[C@@]6(C(=O)Nc7cc(Cl)ccc76)[C@H]5c5cccc(Cl)c5F)cc4)cccc3C2=O)C(=O)N1 (stereo partly specified)
[1]
  IC50: > 10 µM
[2]
  IC50: > 10 µM
[3]
  IC50: 0.0055 µM
[4]
  IC50: > 10 µM

## O=C1CCC(N2Cc3c(CCCCCNC(=O)[C@@H]4NC5(CCCCC5)[C@@]5(C(=O)Nc6cc(Cl)ccc65)[C@H]4c4cccc(Cl)c4F)cccc3C2=O)C(=O)N1 (stereo partly specified)
[3]
  IC50: 0.002 µM
[4]
  IC50: 0.0031 µM
[5]
  IC50: 0.419 µM
[6]
  IC50: 0.964 µM
[7]
  IC50: 2.07 µM
[8]
  IC50: 0.623 µM
[9]
  IC50: 1.37 µM
[10]
  IC50: 2.14 µM
[11]
  IC50: 0.096 µM
[12]
  IC50: 0.211 µM
[13]
  IC50: 0.496 µM
[14]
  IC50: 0.168 µM
[15]
  IC50: 0.4 µM
[16]
  IC50: 0.982 µM

## CNC(=O)[C@@H]1NC2(CCCCC2)[C@@]2(C(=O)Nc3cc(Cl)ccc32)[C@H]1c1cccc(Cl)c1F [US8629141, 21]
[1]
  IC50: > 10 µM
[2]
  IC50: > 10 µM
[4]
  IC50: > 10 µM
